Legend:
CK2 [1] = target: T1, CK2 (Homo sapiens, UniProt P19784+P68400); assay: SAR of ML329 derivatives: NQO1-dependent CK2 inhibitors; format: cell-based; conditions: FIG. 21
T1 construct: endogenous in cells

[2] = system: KEAP1-mutant lung cancer cells; assay: Sensitivity of wild-type and KEAP1-mutated lung cancer cell lines to ML329; format: cell-based; conditions: sensitive cell lines had IC50<10 μM (FIG. 35B)
Description: ML329 (4-[(1,4-dioxo-1,4-dihydronapthalen-2-yl)amino]benzenesulfonamide; […]) is a small molecule that was initially identified as an inhibitor of microphthalmia-associated transcription factor (MITF) (FIGS. 1-6). Briefly, Sk-MEL-5 melanoma cells expressing the promoter of MITF target TRPM1, upstreatm of a luciferase gene, were screened with a library of 331,578 compounds. Secondary screening was performed in two MITF-dependent melanoma cell links (SK-MEL-5 and MALME) and one non-MITF dependent cell line (A375). Candidate hits were tested for their effects on MITF target genes by qPCR. BRD-K45681478 was prioritized for medicinal chemistry. The lead compounds ML329 was used in subsequent studies. […] CK2 is an essential kinase and its reduction/inhibition is lethal (FIG. 11 and FIG. 12). Experiments were performed to determine that ML329 is bioreduced by an enzyme called NQO1, which is preferentially expressed in some cancer types, especially melanoma (FIGS. 13-15). Since ML329 is converted by cancer cells into an active form, it can avoid effects on normal cells. NQO1 is necessary and sufficient for the activity of ML329, thus enabling targeting of CK2 specifically to cancers with high NQO1 expression (FIGS. 16-18). […] Greater than 90% of KEAP1-mutant lung cancers were determined to be sensitive to ML329 (FIG. 20).

[3] = system: CK2alpha and CK2alpha prime; assay: Target identification: bead pull-down from SK-MEL-5 lysate with ML329 competition, mass spectrometry; format: binding
Source text: Whole protein lysates were generated from SK-MEL-5 melanoma cells and mixed with either KUC114363 (a derivative of ML329 conjugated to agarose beads) or KUC114363 along with competing amounts of soluble ML329. Mass spectrometry was used to identify proteins that bound KUC114363 whose binding was diminished upon treatment with ML329. […] Kinases found to bound are marked with red circles, where larger circles indicate higher-affinity binding. KINOMEScan image was generated using TREEspot™ Software Tool and reprinted with permission from KINOMEscan®, a division of DiscoveRx Corporation, © DISCOVERX CORPORATION 2010.

489 cancer cell lines = assay: PRISM viability screen of 489 cancer cell lines; format: cell-based; conditions: 489 cell lines, FIG. 30
Description: Negative odds are associated with sensitivity to ML329 whereas positive odds are associated with insensitivity to ML329.
Strictly Standardized Mean Difference (SSMD) was determined for each cell line. Cell lines with SSMD<2 were filtered out. All cell lines tested had SSMD>2.

WM266.4 cells = assay: WM266.4 melanoma xenograft, tumor volume; format: in vivo; conditions: NSG mice xenografted with WM266.4 cells; 10 mg/kg twice daily
MITF = assay: qPCR of MITF mRNA and MITF target genes; format: cell-based; conditions: FIG. 22
Source text: FIG. 26A-FIG. 26H show the results of a small molecule screen to identify regulators of lineage-specific melanoma oncogene MITF. […] SK-MEL-5 cells stably expressing the TRPM1 promoter fused to the luciferase gene were screened with 331,578 compounds. Secondary screens of putative hits including evaluating cytotoxicity in 2 MITF-dependent cell lines (SK-MEL-5, MALME) and 1 MITF-independent cell line (A375M) and evaluation the effect of candidate hits on the mRNA of MITF and target genes. […] BRD-K45681478 was the lead hit, which was modified by structure-function analysis to generate the compound ML329. FIG. 26B show cell number after 48 h treatment of melanoma cell lines (red) compared to non-melanoma cell lines (black) with ML329. […] MITF-dependent cell lines are depicted in green, whereas the MITF-independent cell line is depicted in red.
ML329 (4-[(1,4-dioxo-1,4-dihydronapthalen-2-yl)amino]benzenesulfonamide; KUC114363) is a small molecule that was initially identified as an inhibitor of microphthalmia-associated transcription factor (MITF) (FIGS. 1-6). Briefly, Sk-MEL-5 melanoma cells expressing the promoter of MITF target TRPM1, upstreatm of a luciferase gene, were screened with a library of 331,578 compounds. […] Greater than 90% of KEAP1-mutant lung cancers were determined to be sensitive to ML329 (FIG. 20).

CK2 [4] = target: CK2 (Homo sapiens, UniProt P68400); assay: CK2 activity in vitro, with or without Nqo1; format: biochemical; conditions: for requirement of Nqo1 for inhibition of CK2 in vitro: FIG. 24E, 24F
Chain of CK2 (Homo sapiens, UniProt P68400) (P68400 whole entry): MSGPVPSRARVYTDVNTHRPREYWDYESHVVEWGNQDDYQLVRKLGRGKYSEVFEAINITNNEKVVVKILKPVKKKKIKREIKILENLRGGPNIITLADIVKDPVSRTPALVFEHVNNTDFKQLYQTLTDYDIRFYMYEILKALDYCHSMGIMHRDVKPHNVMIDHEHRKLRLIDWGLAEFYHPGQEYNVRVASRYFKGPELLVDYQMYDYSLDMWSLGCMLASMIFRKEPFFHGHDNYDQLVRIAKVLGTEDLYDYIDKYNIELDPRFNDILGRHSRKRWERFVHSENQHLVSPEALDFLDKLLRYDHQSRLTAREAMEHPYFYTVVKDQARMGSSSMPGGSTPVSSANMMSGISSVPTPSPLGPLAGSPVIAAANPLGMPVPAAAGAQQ

Nqo1 = Nqo1 (Homo sapiens, UniProt P15559); assay: Reduction of ML329 by Nqo1 in vitro; format: biochemical; conditions: FIG. 24D
Chain of Nqo1 (P15559 whole entry, species assumed): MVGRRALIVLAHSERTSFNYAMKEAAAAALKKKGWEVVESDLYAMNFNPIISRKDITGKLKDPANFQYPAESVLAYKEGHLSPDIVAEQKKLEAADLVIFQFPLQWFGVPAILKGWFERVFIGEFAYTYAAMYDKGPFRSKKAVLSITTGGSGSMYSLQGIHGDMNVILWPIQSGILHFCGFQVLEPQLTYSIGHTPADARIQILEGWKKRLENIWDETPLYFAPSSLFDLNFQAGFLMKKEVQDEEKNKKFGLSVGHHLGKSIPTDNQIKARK

T1 sequence (P68400 whole entry): as the sequence (P68400 whole entry) above
T1 sequence (P19784 whole entry): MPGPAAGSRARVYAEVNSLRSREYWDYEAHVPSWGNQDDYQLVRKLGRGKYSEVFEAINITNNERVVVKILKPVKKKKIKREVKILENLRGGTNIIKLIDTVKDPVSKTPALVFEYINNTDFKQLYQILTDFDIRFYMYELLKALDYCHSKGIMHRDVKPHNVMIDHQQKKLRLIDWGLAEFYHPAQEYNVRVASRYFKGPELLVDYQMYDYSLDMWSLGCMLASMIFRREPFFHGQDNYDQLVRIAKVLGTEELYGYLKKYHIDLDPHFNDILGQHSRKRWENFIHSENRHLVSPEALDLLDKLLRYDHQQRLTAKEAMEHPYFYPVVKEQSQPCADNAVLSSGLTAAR
T1 sequence (P67870 whole entry partner): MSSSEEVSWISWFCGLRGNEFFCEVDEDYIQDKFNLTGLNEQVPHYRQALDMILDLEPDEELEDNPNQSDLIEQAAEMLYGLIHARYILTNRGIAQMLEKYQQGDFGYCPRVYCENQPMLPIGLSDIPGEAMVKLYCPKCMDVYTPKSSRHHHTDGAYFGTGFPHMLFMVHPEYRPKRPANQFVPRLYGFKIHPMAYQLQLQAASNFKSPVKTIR

Structure (SMILES): NS(=O)(=O)c1cccc(NC2=CC(=O)c3ccccc3C2=O)c1 [SCAP105461]
- potency and selectivity as NQO1-dependent CK2 inhibitor (SAR, relative to ML329) (CK2 [1]): more potent and selective NQO1-dependent CK2 inhibitors

Structure (SMILES): NS(=O)(=O)c1ccc(NC2=CC(=O)c3ccccc3C2=O)cc1 [ML329, 4-[(1,4-dioxo-1,4-dihydronapthalen-2-yl)amino]benzenesulfonamide]
- share of KEAP1-mutant lung cancers sensitive to ML329 [2]: Greater than 90%
- binding to CK2 subunits in vitro [3]: binds to CK2alpha and CK2alpha prime
- selectivity of cytotoxicity across cancer cell lines (489 cancer cell lines): selectively cytotoxic in melanoma cells
- in vivo activity in melanoma (tumor volume) (WM266.4 cells): has in vivo activity in melanoma that requires NRF2/NQO1
- effect on MITF mRNA and target gene expression (MITF): suppresses MITF mRNA and target gene expression
- requirement of Nqo1 for inhibition of CK2 in vitro (CK2 [4]): Nqo1 is required
- inhibition of CK2 activity (CK2 [4]; in vitro): inhibits CK2 activity in an ATP-competitive manner
- substrate of Nqo1 in vitro (Nqo1): direct substrate of Nqo1 in vitro

Structure (SMILES): NC(=O)c1ccc(NC2=CC(=O)c3ccccc3C2=O)cc1 [SCAP105463]
- potency and selectivity as NQO1-dependent CK2 inhibitor (SAR, relative to ML329) (CK2 [1]): more potent and selective NQO1-dependent CK2 inhibitors

Structure (SMILES): O=C(O)c1ccc2c(c1)nc(Nc1cccc(Cl)c1)c1ccncc12 [CX4945, 5-[(3-Chlorophenyl)amino]benzo[c]-2,6-naphthyridine-8-carboxylic acid, reference compound]
- requirement of Nqo1 for inhibition of CK2 in vitro (CK2 [4]): Nqo1 is not required
- potency and selectivity as NQO1-dependent CK2 inhibitor (SAR, relative to ML329) (CK2 [1]): more potent and selective NQO1-dependent CK2 inhibitors

Reference: patent publication US12560609B2, “Biomarkers predictive of cancer cell response to ML329 or a derivative thereof” (Dana-Farber Cancer Institute, Inc., priority 2018, dated 2026)
